# Test results taken from patent US7338958B2, “Sulfoximine-substituted pyrimidines as CDK-and/or VEGF inhibitors, their production and use as pharmaceutical agents” (Schering AG, priority 2003, dated 2008).
# Structures can show the parent of a compound that is named as a salt.
# Experiments:
# [1] = system: MCF7, hormone-independent human breast cancer cells; assay: Proliferation assay, MCF7; format: cell-based; conditions: MCF7, 96 h, 4 days incubation, crystal violet
# Method in brief: (§1)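 Cells seeded ~5000/well, treated after 24 h with 0.01-30 μM compound (0.5% DMSO) for 4 days. Glutaraldehyde-fixed cells stained with crystal violet, absorbance at 595 nm; growth expressed as percent, normalized to zero-point plate (0%) and untreated cells (100%).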
# [2] = system: NCI-H460, human non-small-cell lung cancer cells; assay: Proliferation assay, H460; format: cell-based; conditions: NCI-H460, 96 h, 4 days incubation, crystal violet
# Text: (§2) Cultivated human tumor cells (MCF7, hormone-independent human breast cancer cells, related to ATCC HTB22; NCI-H460, human non-small-cell lung cancer cells, ATCC HTB-177, HCT 116, human colon cancer cells, ATCC CCL-247; DU 145, hormone-independent human prostate cancer cells, ATCC HTB-81; MaTu-MDR, hormone-independent, multiple pharmaceutical agent-resistant human breast cancer cells, EPO-GmbH, Berlin) were flattened out at a density of about 5000 cells/measuring point, depending on the growth rate of the respective cells, in a 96-well multititer plate in 200 μl of the corresponding growth medium. After 24 hours, the cells of one plate (zero-point plate) were colored with crystal violet (see below), while the medium of the other plates was replaced by fresh culture medium (200 μl), to which the test substances were added in various concentrations (0 μm, as well as in the range of 0.01-30 μm; the final concentration of the solvent dimethyl sulfoxide was 0.5%). The cells were incubated for 4 days in the presence of test substances. The cell proliferation was determined by coloring the cells with crystal violet: the cells were fixed by adding 20 μl/measuring point of an 11% glutaric aldehyde solution for 15 minutes at room temperature. After three washing cycles of the fixed cells with water, the plates were dried at room temperature. The cells were colored by adding 100 μl/measuring point of a 0.1% crystal violet solution (the pH was set at 3 by adding acetic acid). After three washing cycles of the colored cells with water, the plates were dried at room temperature. The dye was dissolved by adding 100 μl/measuring point of a 10% acetic acid solution. The extinction was determined by photometry at a wavelength of 595 nm. The change of cell growth, in percent, was calculated by normalization of the measured values to the extinction values of the zero-point plate (=0%) and the extinction of the untreated (0 μm) cells (=100%).
# [3] = system: DU 145, hormone-independent human prostate cancer cells; assay: Proliferation assay, DU145; format: cell-based; conditions: DU-145, 96 h, 4 days incubation, crystal violet
# Method in brief: as §1
# MaTu-ADR = assay: Proliferation assay, MaTu-ADR; format: cell-based; conditions: Homo sapiens, 96 h, MaTu-ADR cells, 4 days incubation, crystal violet
# Text: as §2
# CDK2/CycE = target: T1, CDK2/CycE (Homo sapiens, UniProt P24941); assay: CDK2/CycE Kinase Assay; format: biochemical; conditions: histone IIIS substrate, 33P-ATP, 15 minutes at 22° C.
# T1 construct: GST; purchased ProQinase GmbH, Freiburg; host or cells: baculovirus-infected insect cells (Sf9)
# Method in brief: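 Recombinant GST-tagged CDK2/CycE from Sf9 cells (50 ng/point) was incubated with compound (0.01-100 μM) for 15 min at 22° C, pH 8.0, with 0.5 μM ATP plus ^33P-γ-ATP and histone IIIS as substrate, in 12.5% DMSO. Incorporated ^33P was counted after filter binding and washing.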
# [4] = target: T2, VEGF receptor tyrosine kinase-2 (Homo sapiens, UniProt P35968); assay: VEGF Receptor-2 Kinase Assay; format: biochemical; conditions: poly-(Glu4Tyr) substrate, 33P-ATP, 10 minutes at 22° C.; read-out: VEGF-R2 IC50
# T2 construct: GST; made in house; host or cells: baculovirus-infected insect cells (Sf9)
# [5] = system: HCT 116, human colon cancer cells; assay: Proliferation assay, HCT116; format: cell-based; conditions: HCT-116, 96 h, 4 days incubation, crystal violet
# Text: as §2
# CDK1/CycB = target: T3, CDK1/CycB (Homo sapiens, UniProt P06493); assay: CDK1/CycB Kinase Assay; format: biochemical; conditions: histone IIIS substrate, 33P-ATP, 15 minutes at 22° C.
# T3 construct: GST; purchased ProQinase GmbH, Freiburg; host or cells: baculovirus-infected insect cells (Sf9)
# T3 sequence (P06493 whole entry): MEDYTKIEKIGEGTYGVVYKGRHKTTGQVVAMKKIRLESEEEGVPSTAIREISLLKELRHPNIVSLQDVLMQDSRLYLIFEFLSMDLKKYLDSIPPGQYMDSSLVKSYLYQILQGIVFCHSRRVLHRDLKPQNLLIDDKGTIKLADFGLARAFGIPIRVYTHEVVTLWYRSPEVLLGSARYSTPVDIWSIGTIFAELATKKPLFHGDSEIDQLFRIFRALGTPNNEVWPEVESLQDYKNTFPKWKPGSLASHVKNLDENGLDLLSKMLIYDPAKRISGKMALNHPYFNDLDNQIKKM
# T3 sequence (P14635 whole entry partner): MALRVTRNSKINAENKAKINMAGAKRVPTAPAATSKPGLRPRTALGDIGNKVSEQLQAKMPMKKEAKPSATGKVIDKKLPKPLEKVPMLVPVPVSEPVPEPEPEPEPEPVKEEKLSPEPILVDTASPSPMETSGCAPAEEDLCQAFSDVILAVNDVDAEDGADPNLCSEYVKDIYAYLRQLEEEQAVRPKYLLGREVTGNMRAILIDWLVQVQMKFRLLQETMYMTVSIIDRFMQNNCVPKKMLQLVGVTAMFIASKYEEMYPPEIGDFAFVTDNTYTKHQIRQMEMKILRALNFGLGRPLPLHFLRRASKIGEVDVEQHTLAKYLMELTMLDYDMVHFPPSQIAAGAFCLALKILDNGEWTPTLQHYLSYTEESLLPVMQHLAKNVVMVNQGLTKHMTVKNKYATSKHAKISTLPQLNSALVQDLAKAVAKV
# T2 sequence (P35968 20-1356): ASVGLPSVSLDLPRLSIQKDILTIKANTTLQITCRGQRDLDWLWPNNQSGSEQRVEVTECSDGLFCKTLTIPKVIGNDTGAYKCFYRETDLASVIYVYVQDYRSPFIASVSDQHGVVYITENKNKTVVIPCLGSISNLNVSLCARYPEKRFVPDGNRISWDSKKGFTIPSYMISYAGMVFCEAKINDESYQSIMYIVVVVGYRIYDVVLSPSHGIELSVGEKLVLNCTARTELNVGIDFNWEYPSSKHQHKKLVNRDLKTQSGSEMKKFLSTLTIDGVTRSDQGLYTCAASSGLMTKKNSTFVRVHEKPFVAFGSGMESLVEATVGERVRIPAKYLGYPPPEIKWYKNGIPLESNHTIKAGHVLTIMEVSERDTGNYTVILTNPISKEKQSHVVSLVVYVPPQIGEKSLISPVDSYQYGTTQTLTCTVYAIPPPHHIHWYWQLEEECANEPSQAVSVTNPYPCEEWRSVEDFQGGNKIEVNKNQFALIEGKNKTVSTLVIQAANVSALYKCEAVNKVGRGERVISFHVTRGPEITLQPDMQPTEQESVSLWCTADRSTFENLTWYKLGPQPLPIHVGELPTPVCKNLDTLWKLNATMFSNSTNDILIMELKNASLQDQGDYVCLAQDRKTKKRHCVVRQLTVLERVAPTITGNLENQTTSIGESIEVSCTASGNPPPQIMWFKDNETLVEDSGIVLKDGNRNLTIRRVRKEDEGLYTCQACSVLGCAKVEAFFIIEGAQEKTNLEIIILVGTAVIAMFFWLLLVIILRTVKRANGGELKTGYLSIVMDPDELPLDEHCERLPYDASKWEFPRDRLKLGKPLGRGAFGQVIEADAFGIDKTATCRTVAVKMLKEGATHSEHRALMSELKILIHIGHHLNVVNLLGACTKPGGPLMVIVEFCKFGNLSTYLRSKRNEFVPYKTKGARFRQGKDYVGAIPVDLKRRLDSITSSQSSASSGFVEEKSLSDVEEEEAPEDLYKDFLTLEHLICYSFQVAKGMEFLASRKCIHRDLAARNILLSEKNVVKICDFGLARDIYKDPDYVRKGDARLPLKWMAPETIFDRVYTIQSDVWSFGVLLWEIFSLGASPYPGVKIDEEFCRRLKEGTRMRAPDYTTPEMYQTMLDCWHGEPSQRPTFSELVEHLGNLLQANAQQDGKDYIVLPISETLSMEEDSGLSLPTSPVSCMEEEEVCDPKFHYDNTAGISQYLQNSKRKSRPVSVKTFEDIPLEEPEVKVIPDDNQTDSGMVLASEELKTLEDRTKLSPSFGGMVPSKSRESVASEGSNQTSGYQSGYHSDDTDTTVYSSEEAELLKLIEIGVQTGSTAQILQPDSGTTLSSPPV
Compound,IC50 [1] [nM],IC50 [2] [nM],IC50 [3] [nM],IC50 (MaTu-ADR) [nM],IC50 (CDK2/CycE) [nM],IC50 [4] [nM],melting point,IC50 [5] [nM],IC50 (CDK1/CycB) [nM]
"CCC(Sc1nc(Nc2ccc(S(C)(=N)=O)cc2)ncc1Br)C(C)(C)O (racemic) [Example 3.8, (RS)-S-[4-({5-bromo-4-[(RS)-(1-ethyl-2-hydroxy-2-methylpropyl)sulfanyl]pyrimidin-2-yl}amino)phenyl]-S-methyl sulfoximide]",400,300,300,190,27,> 1000,218 °C (dec.),,
"C[C@@H](Nc1nc(Nc2ccc(S(=O)(=NS(=O)(=O)CC[Si](C)(C)C)C3CCCC3)cc2)ncc1Br)C(C)(C)O (mixture of isomers) [Example 1.10, (RS)-S-[4-({5-bromo-4-[(R)-(2-hydroxy-1,2-dimethylpropyl)amino]pyrimidin-2-yl}amino)phenyl]-S-cyclopentyl-N-[2-(trimethylsilyl)ethylsulfonyl]sulfoximide]",,,,,,,200 to 201 °C,,
"C[C@H](CO)Nc1nc(Nc2ccc(S(C)(=O)=NS(=O)(=O)CC[Si](C)(C)C)cc2)ncc1Br (mixture of isomers) [Example 2.1, (RS)-S-[4-({5-bromo-4-[(R)-(2-hydroxy-1-methylethyl)amino]pyrimidin-2-yl}amino)phenyl]-S-methyl-N-[2-(trimethylsilyl)ethylsulfonyl]sulfoximide]",,,,,,,194 to 197 °C,,
"C[C@@H](O)[C@@H](C)Oc1nc(Nc2ccc(S(C)(=N)=O)cc2)ncc1Br (mixture of isomers) [Example 1.4, (RS)-S-[4-({5-bromo-4-[(1R,2R)-2-hydroxy-1-methylpropoxy]pyrimidin-2-yl}amino)phenyl]-S-methyl sulfoximide]",60,60,100,80,,340,,50,13
"C[C@H](CO)Nc1nc(Nc2ccc(S(=O)(CC3CC3)=NS(=O)(=O)CC[Si](C)(C)C)cc2)ncc1Br (mixture of isomers) [Example 1.7, (RS)-S-[4-({5-bromo-4-[(R)-(2-hydroxy-1-methylethyl)amino]pyrimidin-2-yl}amino)phenyl]-S-(cyclopropylmethyl)-N-[2-(trimethylsilyl)ethylsulfonyl]sulfoximide]",,,,,,,195 °C (dec.),,
"CC(CO)Sc1nc(Nc2ccc(S(C)(=N)=O)cc2)ncc1Br (racemic) [Example 3.10, (RS)-S-[4-({5-bromo-4-[(RS)-(2-hydroxy-1-methyl-ethyl)sulfanyl]pyrimidin-2-yl}amino)phenyl]-S-methyl sulfoximide]",400,,,,4,,218 to 220 °C,,18
"C[C@@H](Nc1nc(Nc2ccc(S(C)(=N)=O)cc2)ncc1Br)C(C)(C)O (single isomer, unassigned) [Example 1.3]",< 100,,200,170,,,,100,
"CCC(CO)Sc1nc(Nc2ccc(S(C)(=N)=O)cc2)ncc1Br (racemic) [Example 3.0, (RS)-S-[4-({5-bromo-4-[(RS)-(1-hydroxymethyl-propyl)sulfanyl]pyrimidin-2-yl}amino)phenyl]-S-methyl sulfoximide]",500,,,,16,170,175 to 180 °C,,49
"CCOC(=O)N=S(=O)(CC)c1ccc(Nc2ncc(Br)c(N[C@H](C)[C@@H](C)O)n2)cc1 (mixture of isomers) [Example 1.36, (RS)-S-[4-({5-bromo-4-[(1R,2R)-(2-hydroxy-1-methylpropyl)amino]pyrimidin-2-yl}amino)phenyl]-N-(ethoxycarbonyl)-S-ethyl sulfoximide]",140,120,170,1200,11,92,,,43
"C[C@@H](Nc1nc(Nc2ccc(S(=N)(=O)C3CCCC3)cc2)ncc1Br)C(C)(C)O (mixture of isomers) [Example 1.11, (RS)-S-[4-({5-bromo-4-[(R)-(2-hydroxy-1,2-dimethylpropyl)amino]pyrimidin-2-yl}amino)phenyl]-S-cyclopentylsulfoximide]",,,,,,,194 to 196 °C,,
"CC(O)C(C)Sc1nc(Nc2ccc(S(C)(=N)=O)cc2)ncc1Br (racemic) [Example 3.5, (RS)-S-[4-({5-bromo-4-[(RS,RS)-(2-hydroxy-1-methylpropyl)sulfanyl]pyrimidin-2-yl}amino)phenyl]-S-methyl sulfoximide]",120,50,60,30,8,150,,,17
"C[C@@H](O)[C@@H](C)Oc1nc(Nc2ccc(S(=O)(CCO)=NS(=O)(=O)CC[Si](C)(C)C)cc2)ncc1Br (mixture of isomers) [Example 1.20, (RS)-S-[4-({5-bromo-4-[(1R,2R)-2-hydroxy-1-methyl-propoxy]pyrimidin-2-yl}amino)phenyl]-S-(2-hydroxyethyl)-N-[2-(trimethylsilyl)ethylsulfonyl]sulfoximide]",200,400,400,2100,54,820,,,160
"CCC(Sc1nc(Nc2ccc(S(C)(=N)=O)cc2)ncc1Br)C(C)=O (racemic) (as salt: sodium) [Example 3.3, (RS)-S-[4-({4-[(RS)-(1-acetylpropyl)sulfanyl]-5-bromopyrimidin-2-yl}amino)phenyl]-S-methyl sulfoximide]",,,,,,,192 to 194 °C,,
"CCOC(=O)N=S(C)(=O)c1ccc(Nc2ncc(Br)c(O[C@H](C)[C@@H](C)O)n2)cc1 (mixture of isomers) [Example 1.40, (RS)-S-[4-({5-bromo-4-[(1R,2R)-2-hydroxy-1-methylpropoxy]pyrimidin-2-yl}amino)phenyl]-N-(ethoxycarbonyl)-S-methyl sulfoximide]",110,170,180,300,14,110,,,21
"CCC(C)Sc1nc(Nc2ccc(S(C)(=N)=O)cc2)ncc1Br (racemic) [Example 3.1, (RS)-S-[4-({5-bromo-4-[(RS)-(1-methyl-propyl)sulfanyl]pyrimidin-2-yl}amino)phenyl]-S-methyl sulfoximide]",400,,,,33,120,175 to 183 °C,,97
"CC(Sc1nc(Nc2ccc(S(C)(=N)=O)cc2)ncc1Br)C(C)(C)O (racemic) [Example 3.7, (RS)-S-[4-({5-bromo-4-[(RS)-(2-hydroxy-1,2-dimethylpropyl)sulfanyl]pyrimidin-2-yl}amino)phenyl]-S-methyl sulfoximide]",100,< 100,< 100,< 100,,,201 to 202 °C,,19
"Cc1cc(Nc2ncc(Br)c(N[C@H](C)[C@@H](C)O)n2)ccc1S(C)(=N)=O (mixture of isomers) [Example 1.60, (RS)-S-[4-({5-bromo-4-[(1R,2R)-(2-hydroxy-1-methylpropyl)amino]pyrimidin-2-yl}amino)-2-methylphenyl]-S-methyl sulfoximide]",60,40,40,40,4,39,,,4
